Experimental data published in US9850276B2, “Bidentate-binding modulators of LRRK2 and JNK kinases” (THE SCRIPPS RESEARCH INSTITUTE, priority 2013, dated 2017).
Values joined by “and” are separate entries in the source; they are usually repeats but may differ in a detail not shown here. Identical values can stand only once. Like-named read-outs stand apart in the source and are kept apart here. Where a SMILES comes first, the peptide text is derived from it. The star is where a group is joined. X1 = O=C(NCCCCN*)c1ccc(-c2n[nH]c3ccccc23)cc1; X2 = O=C(NCCCN*)c1ccc(-c2n[nH]c3ccccc23)cc1

Key:
[1] = tested on: infarct size in rat hearts; test: I/R MI rat model, 30 minutes ischemia and 24 hours reperfusion; assay type: in vivo; conditions: 40 mg/kg 3-aminobenzamide; p=0.048
Description: The in vivo efficacy of SR-3306 in anesthetized rats after 30 minutes ischemia and 24 hours reperfusion was evaluated.

JNK3 = JNK3 (Homo sapiens, UniProt P53779); test: JNK3 enzyme activity assay; assay type: biochemical; conditions: 2-3 determinations; SP600125 from 10 measurements; * n = 2-4
JNK3 39-422 = biological target: T1, JNK3 39-422 (Homo sapiens, UniProt P53779); test: JIP FP displacement assay (TAMRA-JIP-11-mer peptide, fluorescence polarization); assay type: binding; conditions: 2-3 determinations; * n = 2-4
T1 construct: with JNK3 39-422 and measuring fluorescence polarization (FP) changes
Text: The biochemical assay for JIP displacement is centered on utilizing a TAMRA-JIP-11-mer peptide (TAMRA-RPKRPTTLNLF) with JNK3 39-422 and measuring fluorescence polarization (FP) changes in the presence and absence of small molecule inhibitors. This assay has been established in 96-well and 384-well format in our labs. Unlabeled JIP-peptide (RPKRPTTLNLF, SEQ ID:1) and compound 2 were used as positive controls.

JNK1 = JNK1 (Homo sapiens, UniProt P45983); test: JNK1 enzyme assay; assay type: biochemical; conditions: 2-3 determinations; SP600125 from 10 measurements
[2] = tested on: c-jun phosphorylation in H9C2 cardiomyocyte cells; test: In-cell Western detection of c-Jun phosphorylation; assay type: cell-based; conditions: for IC50: n = 4, read-out: Cell-based p-c-Jun inhibition (IC50)
Description: The IC50 was calculated to be 2.8±0.5 μM. Standard error is given.
(§1) To analyze the cell activity of compound 6 and its analogs an In-cell Western detection assay was set up where phosphorylation of c-Jun was monitored. […] This finding was corroborated by Western blot analysis in H9C2 and N2a cells (FIG. 7). Considering the reasonably high biochemical kinase selectivity (coupled with its low μM cell potency), compound 6 is believed to be a good in vitro probe molecule for studying the biology and the signal pathways related to JNK/LRRK2 (and mutant LRRK2s).
Table 2, above, presents the inhibition of c-Jun phosphorylation in H9c2 cells for six JNK bidentate inhibitors, compounds 5, 6, 9, 10, 12, and 13.

JNKs = test: Enzyme inhibition profiling, panel of 21 kinases; assay type: biochemical; conditions: 10 μM inhibitor concentration
CLK1 = CLK1 (Homo sapiens, UniProt P49759); test: Enzyme inhibition profiling, panel of 21 kinases; assay type: biochemical
wild-type LRRK2 = wild-type LRRK2 (Homo sapiens, UniProt Q5S007); test: LRRK2 enzyme assay (titration); assay type: biochemical
Text: (§2) Strong inhibition of LRRK2 by compound 6 was also found.

[3] = tested on: c-jun phosphorylation in H9C2 and N2a cells; test: Western blot analysis of c-jun phosphorylation; assay type: cell-based
Text: as §1

[4] = tested on: SHSY5Y cells transfected with LRRK2:G2019S; test: LRRK2:G2019S-induced ROS generation (Mitosox fluorescence); assay type: cell-based, human; conditions: 1 μM or 10 μM compound; p<0.05
Text: (§3) FIGS. 5A, 5B, and 5C, depict the results of assays to determine the protection of LRRK2:G2019S-induced mitochondrial dysfunction and cell death by compound 6. Significance between LRRK2:WT and LRRK2:G2019S are indicated by a single asterisk (p<0.05) (*), while differences between cells expressing LRRK2:G2019S and compound 6 treated cells expressing LRRK2:G2019S are indicated by a double asterisk (p<0.05) (**). Error bars denote standard deviation.
(§4) We next tested if compound 6 was potent in cell-based functional assays that measured reactive oxygen species (ROS) generation, mitochondrial membrane potential (MMP), and cell viability. We had previously shown that JNK inhibition had significant effects on all of these mitochondrial functional parameters in HeLa cells. FIG. 5 presents the effects that compound 6 had on all of these measures in the human dopaminergic SHSY5Y cell line. […] Finally, LRRK2:G2019S-induced cell loss was measured showing ˜50% less viable cells (FIG. 5C). In the presence of 10 μM compound 6, cell viability returned to >95% (p<0.05).

LRRK2-G2019S = LRRK2-G2019S (Homo sapiens, UniProt Q5S007, G2019S); test: LRRK2-G2019S enzyme assay (titration); assay type: biochemical
Text: as §2

LRRK2 = LRRK2 (Homo sapiens, UniProt Q5S007); test: Enzyme inhibition profiling, panel of 21 kinases; assay type: biochemical; conditions: 10 μM inhibitor concentration
[5] = tested on: SHSY5Y cells transfected with LRRK2:G2019S; test: LRRK2:G2019S-induced cell loss (cell viability); assay type: cell-based; conditions: Homo sapiens, SH-SY5Y; 10 μM compound; p<0.05
Text: as §3, §4

JNK3α1 = JNK3α1 (Homo sapiens, UniProt P53779); test: ATP competitive binding / mechanism of inhibition studies; assay type: biochemical; conditions: eight concentrations of compound; p<0.05
Text: (A) Non-linear least squares fitting of the data using an equation for competitive inhibition at eight concentrations of compound 6. (B) Double reciprocal plots and linear regression of the data shown in A.
The detection method in the JNK3 enzyme assay allows for the detection of a compound that inhibits by a variety of mechanisms including: substrate-site binding, allosteric site binding, and ATP-competitive binding. […] However, if the inhibition of kinase activity by 6 was only through substrate site binding, its IC50 value in JNK3 activity assay should be similar to that in JIP displacement assay. […] One possible interaction besides JIP site binding was ATP hinge binding because the head indazole moiety is a well-known hinge binder.

96 kinases = test: Ambit binding screen; conditions: 10 μM
Description: To augment this we screened an additional 96 kinases at 10 μM in the Ambit binding screen to get a broader sense for the selectivity of this compound. […] Since minimal SAR optimizations have been made on this probe molecule it is believed that high selectivity for this class of inhibitors could easily be achieved by exploiting the bidentate binding character of this class.

[6] = tested on: SHSY5Y cells transfected with LRRK2:G2019S; test: LRRK2:G2019S-induced decrease in mitochondrial membrane potential; assay type: cell-based, human; conditions: 10 μM compound
Text: as §3, §4

[7] = Rattus norvegicus, H9c2, H9c2 cells

T1 sequence (P53779 39-422 isoform P53779-2): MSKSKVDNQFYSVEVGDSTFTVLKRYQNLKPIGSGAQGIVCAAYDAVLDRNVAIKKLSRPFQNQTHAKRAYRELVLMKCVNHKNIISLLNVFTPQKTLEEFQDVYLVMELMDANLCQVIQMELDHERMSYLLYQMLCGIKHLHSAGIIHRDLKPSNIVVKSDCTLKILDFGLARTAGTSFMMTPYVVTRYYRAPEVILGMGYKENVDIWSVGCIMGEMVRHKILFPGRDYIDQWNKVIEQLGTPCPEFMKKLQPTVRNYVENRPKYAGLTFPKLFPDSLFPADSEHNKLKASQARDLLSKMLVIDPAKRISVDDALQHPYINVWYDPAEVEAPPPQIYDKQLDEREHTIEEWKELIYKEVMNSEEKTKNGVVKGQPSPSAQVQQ
JNK3, sequence (P53779 1-422 isoform P53779-2): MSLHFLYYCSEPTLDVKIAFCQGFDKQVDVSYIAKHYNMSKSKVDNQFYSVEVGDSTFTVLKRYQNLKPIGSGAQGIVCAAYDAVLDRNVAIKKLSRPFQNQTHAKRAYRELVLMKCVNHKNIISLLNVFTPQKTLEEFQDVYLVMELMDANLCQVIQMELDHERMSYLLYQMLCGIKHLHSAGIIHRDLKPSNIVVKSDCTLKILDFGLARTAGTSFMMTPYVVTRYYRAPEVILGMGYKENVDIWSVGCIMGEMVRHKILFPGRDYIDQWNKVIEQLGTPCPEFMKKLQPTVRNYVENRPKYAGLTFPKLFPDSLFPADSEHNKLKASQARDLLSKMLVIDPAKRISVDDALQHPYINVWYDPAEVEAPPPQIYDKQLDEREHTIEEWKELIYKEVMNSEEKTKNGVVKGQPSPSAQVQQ
JNK1, sequence (P45983 whole entry): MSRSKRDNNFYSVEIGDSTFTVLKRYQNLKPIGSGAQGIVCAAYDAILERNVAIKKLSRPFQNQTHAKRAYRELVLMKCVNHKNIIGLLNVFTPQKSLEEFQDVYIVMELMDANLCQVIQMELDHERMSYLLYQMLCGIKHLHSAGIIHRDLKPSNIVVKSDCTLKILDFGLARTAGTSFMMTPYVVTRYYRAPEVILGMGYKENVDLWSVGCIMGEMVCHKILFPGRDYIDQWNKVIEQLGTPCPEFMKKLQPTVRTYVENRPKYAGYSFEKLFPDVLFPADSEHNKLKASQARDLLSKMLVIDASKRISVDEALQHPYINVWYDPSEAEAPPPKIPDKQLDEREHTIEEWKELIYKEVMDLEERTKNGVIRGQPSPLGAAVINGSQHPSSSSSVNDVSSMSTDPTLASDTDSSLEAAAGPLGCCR
wild-type LRRK2, sequence (Q5S007 whole entry): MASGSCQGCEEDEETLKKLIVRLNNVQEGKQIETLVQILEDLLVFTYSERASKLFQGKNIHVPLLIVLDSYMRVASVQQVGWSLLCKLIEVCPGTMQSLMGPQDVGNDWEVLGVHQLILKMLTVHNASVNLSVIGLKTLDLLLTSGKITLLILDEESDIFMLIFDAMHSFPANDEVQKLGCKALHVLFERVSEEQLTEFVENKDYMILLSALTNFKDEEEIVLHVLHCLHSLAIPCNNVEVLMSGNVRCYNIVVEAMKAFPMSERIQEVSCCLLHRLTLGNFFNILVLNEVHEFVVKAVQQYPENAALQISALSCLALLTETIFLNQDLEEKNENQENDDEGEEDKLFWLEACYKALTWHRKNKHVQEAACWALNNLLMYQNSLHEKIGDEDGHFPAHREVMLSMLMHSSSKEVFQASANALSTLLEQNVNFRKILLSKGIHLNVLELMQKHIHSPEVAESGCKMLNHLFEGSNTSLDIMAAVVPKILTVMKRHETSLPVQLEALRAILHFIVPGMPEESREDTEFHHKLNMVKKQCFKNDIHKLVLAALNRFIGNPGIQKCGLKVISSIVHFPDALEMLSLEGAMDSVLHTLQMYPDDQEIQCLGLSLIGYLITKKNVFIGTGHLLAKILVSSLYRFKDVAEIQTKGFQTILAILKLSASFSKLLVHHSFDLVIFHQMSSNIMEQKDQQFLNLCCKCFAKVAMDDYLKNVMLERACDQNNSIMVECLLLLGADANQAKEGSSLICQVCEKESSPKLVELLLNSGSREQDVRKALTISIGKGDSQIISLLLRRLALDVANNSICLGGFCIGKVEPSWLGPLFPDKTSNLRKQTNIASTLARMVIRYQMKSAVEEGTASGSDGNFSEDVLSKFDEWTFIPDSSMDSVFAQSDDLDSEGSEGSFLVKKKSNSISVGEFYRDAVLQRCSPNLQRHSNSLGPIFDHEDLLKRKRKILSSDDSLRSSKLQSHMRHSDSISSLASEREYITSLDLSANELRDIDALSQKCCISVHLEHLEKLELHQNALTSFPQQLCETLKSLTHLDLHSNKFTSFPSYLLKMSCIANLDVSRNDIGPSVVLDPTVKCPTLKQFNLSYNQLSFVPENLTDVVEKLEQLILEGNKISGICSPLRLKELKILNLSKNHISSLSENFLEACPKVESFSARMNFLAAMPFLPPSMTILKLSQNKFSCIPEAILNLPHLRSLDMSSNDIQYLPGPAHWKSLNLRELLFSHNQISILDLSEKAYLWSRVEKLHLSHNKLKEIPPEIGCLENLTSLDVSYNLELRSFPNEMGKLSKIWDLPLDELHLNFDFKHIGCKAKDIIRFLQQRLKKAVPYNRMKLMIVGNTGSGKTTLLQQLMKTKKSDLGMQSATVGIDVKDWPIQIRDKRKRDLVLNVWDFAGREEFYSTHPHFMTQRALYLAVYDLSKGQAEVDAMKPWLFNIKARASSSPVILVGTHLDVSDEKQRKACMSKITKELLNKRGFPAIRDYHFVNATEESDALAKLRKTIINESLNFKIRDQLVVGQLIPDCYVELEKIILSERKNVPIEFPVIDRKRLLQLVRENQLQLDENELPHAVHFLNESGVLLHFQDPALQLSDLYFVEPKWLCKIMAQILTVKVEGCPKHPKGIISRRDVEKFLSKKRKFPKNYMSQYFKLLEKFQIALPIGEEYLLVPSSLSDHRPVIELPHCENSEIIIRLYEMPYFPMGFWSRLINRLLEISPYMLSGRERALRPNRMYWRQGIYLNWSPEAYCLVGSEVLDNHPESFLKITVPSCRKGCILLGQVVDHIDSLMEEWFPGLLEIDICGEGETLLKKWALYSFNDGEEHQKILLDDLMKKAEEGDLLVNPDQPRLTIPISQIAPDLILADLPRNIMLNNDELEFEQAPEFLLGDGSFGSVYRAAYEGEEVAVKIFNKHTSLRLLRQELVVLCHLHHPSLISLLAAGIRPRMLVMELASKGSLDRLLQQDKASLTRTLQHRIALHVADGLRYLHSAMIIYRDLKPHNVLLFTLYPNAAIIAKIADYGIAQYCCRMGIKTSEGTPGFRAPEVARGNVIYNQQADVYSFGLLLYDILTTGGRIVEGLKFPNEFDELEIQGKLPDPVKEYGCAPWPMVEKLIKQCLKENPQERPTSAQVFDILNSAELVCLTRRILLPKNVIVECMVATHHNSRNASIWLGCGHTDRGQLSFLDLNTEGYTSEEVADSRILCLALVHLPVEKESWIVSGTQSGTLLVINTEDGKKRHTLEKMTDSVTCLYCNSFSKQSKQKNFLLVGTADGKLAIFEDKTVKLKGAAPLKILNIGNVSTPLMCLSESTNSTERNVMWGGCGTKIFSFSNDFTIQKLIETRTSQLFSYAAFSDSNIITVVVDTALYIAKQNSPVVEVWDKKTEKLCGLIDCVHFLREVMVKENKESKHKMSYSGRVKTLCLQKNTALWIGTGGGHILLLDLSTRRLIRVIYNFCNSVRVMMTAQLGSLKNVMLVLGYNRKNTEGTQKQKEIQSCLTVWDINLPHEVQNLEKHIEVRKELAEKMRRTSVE
CLK1, sequence (P49759 whole entry): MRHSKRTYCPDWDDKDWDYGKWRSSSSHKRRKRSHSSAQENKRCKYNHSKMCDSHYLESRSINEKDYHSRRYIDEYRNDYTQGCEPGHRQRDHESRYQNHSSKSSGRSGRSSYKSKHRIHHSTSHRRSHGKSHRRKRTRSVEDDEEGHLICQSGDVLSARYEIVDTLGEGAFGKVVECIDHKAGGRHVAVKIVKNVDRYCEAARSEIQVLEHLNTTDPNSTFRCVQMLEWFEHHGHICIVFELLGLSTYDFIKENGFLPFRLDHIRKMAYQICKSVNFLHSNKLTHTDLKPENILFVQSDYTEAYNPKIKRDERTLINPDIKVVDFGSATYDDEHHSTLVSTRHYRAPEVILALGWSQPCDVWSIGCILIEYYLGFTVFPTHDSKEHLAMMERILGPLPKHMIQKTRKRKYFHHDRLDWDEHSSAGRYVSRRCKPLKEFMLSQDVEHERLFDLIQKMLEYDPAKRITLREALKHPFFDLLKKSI
LRRK2-G2019S, sequence (Q5S007 whole entry G2019S): as the sequence (Q5S007 whole entry) above, with G2019S counted along it
JNK3α1, sequence (P53779 1-422 isoform P53779-2): as the sequence (P53779 1-422 isoform P53779-2) above
LRRK2, sequence (Q5S007 whole entry): as the sequence (Q5S007 whole entry) above

## NC(=O)c1cccc(N)c1 [3-aminobenzamide]
[1]
  infarct size (IS): 26±1.5 % of AAR

## CC(=O)N[C@@H](CC(C)C)C(=O)N[C@@H](CC(N)=O)C(=O)N[C@@H](CC(C)C)C(=O)NCC(=O)NCC(=O)NCCCNC(=O)c1ccc(-c2n[nH]c3ccccc23)cc1 [Compound 1] (Ac-LNLGG-X2)
JNK3
  IC50: 0.0378 ± 0.0118 µM
JNK3 39-422
  IC50: 0.76 µM

## CC(C)C[C@H](NC(=O)[C@H](CC(N)=O)NC(=O)[C@@H](N)CC(C)C)C(=O)NCC(=O)NCC(=O)NCCCNC(=O)c1ccc(-c2n[nH]c3ccccc23)cc1 [Compound 2] (H-LNLGG-X2)
JNK3
  IC50: 0.136 ± 0.0359 µM
JNK3 39-422
  IC50: 0.624 µM

## CC(=O)N[C@@H](CC(C)C)C(=O)N[C@@H](CC(N)=O)C(=O)N[C@@H](CC(C)C)C(=O)NCC(=O)NCCCCNC(=O)c1ccc(-c2n[nH]c3ccccc23)cc1 [Compound 3, (S)—N1-((S)-1-((2-((4-(4-(1H-indazol-3-yl)benzamido)butyl)amino)-2-oxoethyl)amino)-4-methyl-1-oxopentan-2-yl)-2-((S)-2-acetamido-4-methylpentanamido)succinamide] (Ac-LNLG-X1)
JNK3
  IC50: 0.157 ± 0.162 µM
JNK1
  IC50: 0.318 ± 0.0119 µM
JNK3 39-422
  IC50: 0.62 µM

## CC(C)CN(CC(=O)NCCCCCCNC(=O)c1ccc(-c2n[nH]c3ccccc23)cc1)C(=O)CNC(=O)c1ccc2c(c1)OCCO2 [Compound 4, N-(2-((2-((6-(4-(1H-indazol-3-yl)benzamido)hexyl)amino)-2-oxoethyl)(isobutyl)amino)-2-oxoethyl)-2,3-dihydrobenzo[b][1,4]dioxine-6-carboxamide]
JNK3
  IC50: 0.147 ± 0.0516 µM
JNK1
  IC50: 0.685 ± 0.121 µM
JNK3 39-422
  IC50: 0.907 µM

## CC(C)CN(CC(=O)NCCCCCCNC(=O)c1ccc(-c2n[nH]c3ccccc23)cc1)C(=O)CNC(=O)C1COc2ccccc2O1 (centres unmarked) [Compound 5, N-(2-((2-((6-(4-(1H-indazol-3-yl)benzamido)hexyl)amino)-2-oxoethyl)(isobutyl)amino)-2-oxoethyl)-2,3-dihydrobenzo[b][1,4]dioxine-2-carboxamide]
JNK3
  IC50: 0.0634 ± 0.0104 µM
JNK1
  IC50: 0.164 ± 0.0217 µM
[2]; [7]
  IC50: 37.4 ± 22.3 µM
JNK3 39-422
  IC50: 0.363 µM

## COc1ccc2c(c1)CC(C(=O)NCC(=O)N(CC(=O)NCCCCCCNC(=O)c1ccc(-c3n[nH]c4ccccc34)cc1)CC(C)C)CO2 (centres unmarked) [Compound 6, N-(2-((2-((6-(4-(1H-indazol-3-yl)benzamido)hexyl)amino)-2-oxoethyl)(isobutyl)amino)-2-oxoethyl)-6-methoxychroman-3-carboxamide]
JNKs
  inhibition of JNKs: ~100%
JNK3
  IC50: 0.012 µM and 0.0116 µM
CLK1; 10 μM inhibitor concentration
  inhibition at 10 µM: 50%
CLK1; inferred from 50% inhibition at 10 μM
  IC50: ~10 µM
wild-type LRRK2; read-out: wild-type LRRK2 IC50
  IC50: 0.118 µM and ~0.1 µM
[3]
  c-jun phosphorylation by Western blot: inhibition of the c-jun phorphorylation
[4]
  ROS levels: reduced the ROS levels in a statistically significant manner
LRRK2-G2019S
  IC50: 0.099 µM and ~0.1 µM
JNK1
  IC50: 0.109 ± 0.0061 µM
LRRK2
  inhibition at 10 µM: 94%
[2]; H9C2 cells
  concentration from which c-Jun phosphorylation began to be inhibited significantly: ~100 nM
[2]; [7]
  IC50: 2.8 ± 0.5 µM
JNK3 39-422
  IC50: 0.336 µM and ~0.336 µM
[5]
  viability at 10 µM: > 95%
JNK3α1
  mechanism of inhibition versus ATP: competitive inhibitor of ATP
96 kinases
  number of the 96 kinases with greater than 90% binding: six
  share of kinases inhibited: ~5%
[6]
  protection against decrease in MMP: returned MMP dissipation to untreated levels

## COc1ccc2c(c1)CC(C(=O)N[C@@H](C)C(=O)N(CC(=O)NCCCCCCNC(=O)c1ccc(-c3n[nH]c4ccccc34)cc1)CC(C)C)CO2 (stereo partly drawn) [Compound 7, N—((S)-1-((2-((6-(4-(1H-indazol-3-yl)benzamido)hexyl)amino)-2-oxoethyl)(isobutyl)amino)-1-oxopropan-2-yl)-6-methoxychroman-3-carboxamide]
JNK3
  IC50: 0.127 ± 0.0303 µM
JNK1
  IC50: 0.154 ± 0.0371 µM
JNK3 39-422
  IC50: 1.05 µM

## COc1ccc2c(c1)CC(C(=O)NCC(=O)N(CC(=O)NCCCCCCNC(=O)c1ccc3[nH]ncc3c1)CC(C)C)CO2 (centres unmarked) [Compound 8, N-(6-(2-(N-isobutyl-2-(6-methoxychroman-3-carboxamido)acetamido)acetamido)hexyl)-1H-indazole-5-carboxamide]
JNK3
  IC50: 3.15 µM

## COc1ccc2c(c1)CC(C(=O)N(CC(=O)NCCCCNC(=O)c1ccc(-c3n[nH]c4ccccc34)cc1)CC(C)C)CO2 (centres unmarked) [Compound 9]
JNK3
  IC50: 0.246 ± 0.227 µM
[2]; [7]
  IC50: 80.4 ± 41.4 µM
JNK3 39-422
  IC50: 0.3 ± 0.187 µM

## CC(C)CN(CC(=O)NCCCCNC(=O)c1ccc(-c2n[nH]c3ccccc23)cc1)C(=O)c1ccc2c(c1)OCCO2 [Compound 10]
JNK3
  IC50: 0.065 µM
wild-type LRRK2; LRRK2 form not stated, only hit in profiling against 18 kinases at 10 μM, read-out: LRRK2 IC50
  IC50: 0.08 µM
[2]; H9c2 cells
  IC50: 1.4 ± 0.34 µM
[2]; [7]
  IC50: ~1 µM
JNK3 39-422
  IC50: 0.363 ± 0.272 µM

## CC(C)CN(CCCCCCNC(=O)c1ccc(-c2n[nH]c3ccccc23)cc1)C(=O)c1ccc2c(c1)OCCO2 [Compound 11]
JNK3
  IC50: 0.086 ± 0.037 µM
JNK3 39-422
  IC50: 0.781 ± 0.007 µM

## CC(C)CN(CC(=O)NCCCCNC(=O)c1ccc(-c2n[nH]c3ccccc23)cc1)C(=O)CNC(=O)c1cccc(Cl)c1 [Compound 12]
JNK3
  IC50: 0.184 ± 0.038 µM
[2]; [7]
  IC50: 19.8 ± 7.8 µM
JNK3 39-422
  IC50: 0.52 ± 0.17 µM

## CC(C)CN(CC(=O)NCCCCNC(=O)c1ccc(-c2n[nH]c3ccccc23)cc1)CC(C)C [Compound 13]
JNK3
  IC50: 0.374 ± 0.227 µM
[2]; [7]
  IC50: 9.6 ± 3 µM
JNK3 39-422
  IC50: 1.73 ± 0.635 µM
